Common to all, as to experiment: DTP human tumour cell line panel, 48 h
Experiment [1] deals with RPMI-8226 leukemia.
Experiment [2] concerns SF-539 CNS.
Experiment [3] concerns HOP-92 NSCLC.
Experiment [4] deals with U251 CNS.
Experiment [5] relates to SN12C renal.
In experiment [6] the test system is SF-295 CNS.
Experiment [7] deals with OVCAR-4 ovarian.
Experiment [8] has as its system UACC-257 melanoma.
Experiment [9] has as its system SF-268 CNS.

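Interpolation was linear, between the two tested concentrations surrounding the appropriate level; five concentrations were tested over 48 hours in 96-well plates. At the GI50, growth is halved. TGI denotes the concentration required for complete inhibition of growth.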 Some results are limits rather than exact numbers.

The term GI50 denotes the concentration giving 50% growth inhibition. Usually TGI stands for the concentration at which net growth stops. With `O=C(NN1C(=O)CSC12CCCC2)c1[nH]c2ccc(Br)cc2c1-c1ccccc1`, the GI50 in experiment [1] is 30.2 µM; in experiment [2], more than 100 µM; in experiment [3], 33.8 µM; in experiment [4] it was 38.2 µM; in experiment [5], 25.9 µM; in experiment [6], 24.2 µM. Besides, the GI50 in [7] is 24.7 µM; in [8], more than 100 µM; in experiment [9], 52.1 µM. The TGI in experiment [1] is 86.5 µM; in [2], more than 100 µM; in experiment [3] it was more than 100 µM; in experiment [4], more than 100 µM; in [5] it was 77 µM; in experiment [6], 69.7 µM. Besides, the concentration for total growth inhibition (TGI) in [7], in [8] and in experiment [9] was more than 100 µM throughout.
On to `COc1ccc2ccccc2c1C1OC(=O)c2ccccc21` (stereo not drawn), for which the TGI in [1], in experiment [2], in [3], in experiment [4], in experiment [5] and in experiment [6] was more than 100 µM throughout. Also, the TGI in [7], in [8] and in experiment [9] was more than 100 µM each time.
As for `COc1ccc(OC)c2c1C(=O)C1CC1(Br)C2=O` (stereo not drawn), the TGI in experiment [1], in experiment [2], in experiment [4], in experiment [5], in [6] and in experiment [7] was more than 100 µM each time. For the same molecule, the TGI in experiment [8] and in experiment [9] was more than 100 µM each time.
In the case of `CN(/N=C/c1cccc2cccnc12)c1ccccc1`, the TGI in experiment [1], in [2], in experiment [3], in experiment [4], in experiment [5] and in experiment [6] was more than 100 µM in each case. In addition, the concentration for total growth inhibition (TGI) in [7], in [8] and in [9] was more than 100 µM each time.
As to `[N-]=[N+]=NC(CI)c1cn([C@H]2C[C@H](O)[C@@H](CO)O2)c(=O)[nH]c1=O` (stereo partly drawn), the total growth inhibition concentration (TGI) in experiment [1], in [2], in experiment [3], in [4], in experiment [5] and in experiment [6] was more than 100 µM each time.
As for `CC(C)c1cccc2sc(NC(=O)C(=O)C(C#N)c3cccc4ccccc34)nc12` (stereo not drawn), the TGI was more than 100 µM in experiment [2]; 97.9 µM in [3]; more than 100 µM in experiment [4]; more than 100 µM in experiment [5]; more than 100 µM in experiment [6]; more than 100 µM in [7]. The TGI in experiment [8] and in experiment [9] was more than 100 µM throughout.
Turning to `O=c1c2ccccc2nc(-c2ccccc2)n1NC1OC(CO)C(O)C(O)C1O` (stereo not drawn), the TGI in experiment [1], in experiment [2], in experiment [3], in [4], in experiment [5] and in experiment [6] was more than 100 µM each time. In addition, the TGI in [7], in experiment [8] and in experiment [9] was more than 100 µM in each case.
As to `CCOC(=O)C(=Cc1cccnc1C)C(=O)OCC`, the TGI in [2] was 33.3 µM; in [3] it was 24.5 µM; in [4], 18.6 µM; in experiment [5] it was 16.2 µM; in experiment [6] it was 24.2 µM; in [7] it was 27.4 µM. Also, the TGI in experiment [8] was 20.7 µM; in [9], 31.3 µM.
In the case of `Cc1ccccc1NC(=O)C(=O)CC(=O)c1c(C)n([O-])c2ccccc2[n+]1=O`, the TGI in experiment [1], in [2], in experiment [4], in [5], in experiment [6] and in [7] was more than 100 µM each time. In addition, the TGI in experiment [8] and in experiment [9] was more than 100 µM in each case.
For `CCOC(=O)NC(=O)c1cn(CCN2CCN(c3ncnc4nc[nH]c34)CC2)c(=O)[nH]c1=O`, the TGI in experiment [1], in experiment [2], in experiment [3], in [4], in experiment [5] and in [6] was more than 100 µM throughout. The TGI in experiment [8] and in [9] was more than 100 µM throughout.
Regarding `Cc1ccc(Nc2nc(C)c(C(/C=C/c3ccc(/C=C/C(=N/NC(=O)C[n+]4ccccc4)c4sc(Nc5ccc(C)cc5[N+](=O)[O-])nc4C)cc3)=N\NC(=O)C[n+]3ccccc3)s2)c([N+](=O)[O-])c1`, the TGI in experiment [2], in [4], in [5], in experiment [6], in experiment [7] and in [8] was more than 100 µM throughout. The molecule also gave a TGI in [9] of more than 100 µM.
In the case of `COC(=O)CCC(NC(=S)N/N=C/c1ccco1)C(=O)OC` (stereo not drawn), the TGI in experiment [2], in experiment [4], in experiment [5], in experiment [6], in [7] and in experiment [8] was more than 100 µM in each case. For the same molecule, the TGI in experiment [9] is more than 100 µM.
With `COc1ccc(C2=NN(c3ccccc3)C[N+](c3ccc(OC)cc3)=N2)cc1`, the TGI is 67.5 µM in [1]; 49.8 µM in experiment [4]; more than 100 µM in experiment [5]; more than 100 µM in experiment [6]; 64 µM in experiment [7]; more than 100 µM in experiment [8]. Besides, in experiment [9], the total growth inhibition concentration (TGI) was more than 100 µM.
Consider `CC1=C2C(=CC(C)(C)C2O)C(=O)C(C)(O)C12CC2` (stereo not drawn), for which the TGI in experiment [2] turned out to be 0.0604 µM; in [3] it was 0.0526 µM; in [4], 0.102 µM; in experiment [5] it was 0.146 µM; in [6], 0.0342 µM; in experiment [7] it was 0.0209 µM. Moreover, the TGI in experiment [8] turned out to be 0.0442 µM; in [9], 0.0667 µM. Also, the GI50 in experiment [4] is 0.00775 µM.
Take `CN1c2ccccc2N(C)C23N(C)c4ccccc4N(C)C12N(C)c1ccccc1N3C` (stereo not drawn): the concentration for total growth inhibition (TGI) in experiment [2], in experiment [3], in [4], in [5], in experiment [6] and in experiment [8] was more than 100 µM each time. In experiment [9], this molecule came in with a total growth inhibition concentration (TGI) of more than 100 µM.

The values above are taken from PubChem BioAssay (NCI).
